What was measured:
[1] = biological target: human orexin-2 receptor (Homo sapiens (Human), UniProt O43614); test: FLIPR Ca2+ Flux Assay, orexin-2 receptor; assay type: cell-based; details: CHO cells, agonist 70 pM Ala-6,12 human orexin-A; read-out: hOX2R FLIPR IC50
Method: The utility of the compounds in accordance with the present invention as orexin receptor OX1R and/or OX2R antagonists may be readily determined without undue experimentation by methodology well known in the art, including the “FLIPR Ca^2+ Flux Assay” (Okumura et al., Biochem. Biophys. Res. Comm. 280:976-981, 2001). In a typical experiment the OX1 and OX2 receptor antagonistic activity of the compounds of the present invention was determined in accordance with the following experimental method. For intracellular calcium measurements, Chinese hamster ovary (CHO) cells expressing the rat orexin-1 receptor or the human orexin-2 receptor, are grown in Iscove's modified DMEM containing 2 mM L-glutamine, […], 1% hypoxanthine-thymidine supplement, 100 U/ml penicillin, 100 μg/ml streptomycin and 10% heat-inactivated fetal calf serum (FCS). The cells are seeded at 20,000 cells/well into Becton-Dickinson black 384-well clear bottom sterile plates coated with poly-D-lysine. All reagents were from GIBCO-Invitrogen Corp. The seeded plates are incubated overnight at 37° C. and 5% CO2. Ala-6,12 human orexin-A as the agonist is prepared as a 1 mM stock solution in 1% bovine serum albumin (BSA) and diluted in assay buffer (HBSS containing 20 mM HEPES, 0.1% BSA and 2.5 mM probenecid, pH7.4) for use in the assay at a final concentration of 70 pM. Test compounds are prepared as 10 mM stock solution in DMSO, then diluted in 384-well plates, first in DMSO, then assay buffer. On the day of the assay, cells are washed 3 times with 100 μl assay buffer and then incubated for 60 min (37° C., 5% CO2) in 60 μl assay buffer containing 1 μM Fluo-4AM ester, 0.02% pluronic acid, and 1% BSA. The dye loading solution is then aspirated and cells are washed 3 times with 100 μl assay buffer. 30 μl of that same buffer is left in each well. Within the Fluorescent Imaging Plate Reader (FLIPR, Molecular Devices), test compounds are added to the plate in a volume of 25 μl, incubated for 5 min and finally 25 μl of agonist is added. Fluorescence is measured for each well at 1 second intervals for 5 minutes and the height of each fluorescence peak is compared to the height of the fluorescence peak induced by 70 pM Ala-6,12 orexin-A with buffer in place of antagonist. For each antagonist, IC50 value (the concentration of compound needed to inhibit 50% of the agonist response) is determined. Alternatively, compound potency can be assessed by a radioligand binding assay (described in Bergman et. al. Bioorg. Med. Chem. Lett. 2008, 18, 1425-1430) in which the inhibition constant (Ki) is determined in membranes prepared from CHO cells expressing either the OX1 or OX2 receptor. The intrinsic orexin receptor antagonist activity of a compound which may be used in the present invention may be determined by these assays.

[2] = biological target: hOX1R (Homo sapiens, UniProt O43613); test: FLIPR Ca2+ Flux Assay, orexin-1 receptor; assay type: cell-based; details: CHO cells, agonist 70 pM Ala-6,12 human orexin-A

Sequence of human orexin-2 receptor (O43614 whole entry): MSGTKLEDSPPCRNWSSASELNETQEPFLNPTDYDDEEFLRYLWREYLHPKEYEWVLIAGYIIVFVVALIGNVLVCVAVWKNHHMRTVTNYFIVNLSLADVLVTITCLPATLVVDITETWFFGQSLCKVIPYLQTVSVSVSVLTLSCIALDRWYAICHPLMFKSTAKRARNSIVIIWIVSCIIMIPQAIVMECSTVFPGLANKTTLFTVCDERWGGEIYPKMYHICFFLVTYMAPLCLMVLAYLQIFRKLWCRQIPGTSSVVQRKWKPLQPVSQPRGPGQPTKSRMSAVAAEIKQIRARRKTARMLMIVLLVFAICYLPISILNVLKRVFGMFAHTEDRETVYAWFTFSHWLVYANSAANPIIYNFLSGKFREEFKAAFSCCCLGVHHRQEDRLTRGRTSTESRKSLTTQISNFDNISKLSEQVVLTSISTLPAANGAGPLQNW

SMILES	IC50 [1] [nM]	IC50 [2] [nM]
C[C@@H]1CC[C@@H](Sc2cc(C#N)ccn2)CN1C(=O)c1ccccc1-c1cnn(C)c1 [Example 31, 2-{[(3R,6R)-6-methyl-1-{[2-(1-methyl-1H-pyrazol-4-yl)phenyl]carbonyl}piperidin-3-yl]sulfanyl}pyridine-4-carbonitrile]	30.3	3190
C[C@@H]1CC[C@@H](Sc2cc(C#N)ccn2)CN1C(=O)c1cccnc1-c1ccccc1 [Example 32, 2-({(3R,6R)-6-methyl-1-[(2-phenylpyridin-3-yl)carbonyl]piperidin-3-yl}sulfanyl)pyridine-4-carbonitrile]	71.9	10000
CC(C)Oc1ccccc1C(=O)N1C[C@H](Sc2cc(C#N)ccn2)CC[C@H]1C [Example 33, 2-{[(3R,6R)-6-methyl-1-{[2-(1-methylethoxy)phenyl]carbonyl}piperidin-3-yl]sulfanyl}pyridine-4-carbonitrile]	29.4	6840
CSc1ccccc1C(=O)N1C[C@H](Sc2cc(C#N)ccn2)CC[C@H]1C [Example 34, 2-{[(3R,6R)-6-methyl-1-{[2-(methylsulfanyl)phenyl]carbonyl}piperidin-3-yl]sulfanyl}pyridine-4-carbonitrile]	75.4	8720
C[C@@H]1CC[C@@H](Sc2cc(C#N)ccn2)CN1C(=O)c1ccccc1C1CCCCO1 (stereo partly drawn) [Example 38, 2-{[(3R,6R)-6-methyl-1-{[2-(tetrahydro-2H-pyran-2-yl)phenyl]carbonyl}piperidin-3-yl]sulfanyl}pyridine-4-carbonitrile]	36.6	10000
C[C@@H]1CC[C@@H](Sc2cc(C#N)ccn2)CN1C(=O)c1ccccc1N1CCCC1 [Example 39, 2-({(3R,6R)-6-methyl-1-[(2-pyrrolidin-1-ylphenyl)carbonyl]piperidin-3-yl}sulfanyl)pyridine-4-carbonitrile]	103	10000
C[C@@H]1CC[C@@H](Sc2cc(C#N)ccn2)CN1C(=O)c1ccsc1-c1ncccn1 [Example 40, 2-({(3R,6R)-6-Methyl-1-[(2-pyrimidin-2-ylthiophen-3-yl)carbonyl]piperidin-3-yl}sulfanyl)pyridine-4-carbonitrile]	19	2240
C[C@@H]1CC[C@@H](Sc2cc(C#N)ccn2)CN1C(=O)c1ccccc1-c1ncccn1 [Example 41, 2-({(3R,6R)-6-methyl-1-[(2-pyrimidin-2-ylphenyl)carbonyl]piperidin-3-yl}sulfanyl)pyridine-4-carbonitrile]	18.9	1580
C[C@@H]1CC[C@@H](Sc2cc(C#N)ccn2)CN1C(=O)c1sccc1-c1ncccn1 [Example 42, 2-({(3R,6R)-6-methyl-1-[(3-pyrimidin-2-ylthiophen-2-yl)carbonyl]piperidin-3-yl}sulfanyl)pyridine-4-carbonitrile]	5.3	3560
COc1ccc(C(=O)N2C[C@H](Sc3cc(C#N)ccn3)CC[C@H]2C)c(-c2ncccn2)n1 [Example 43, 2-({(3R,6R)-1-[(6-methoxy-2-pyrimidin-2-ylpyridin-3-yl)carbonyl]-6-methylpiperidin-3-yl}sulfanyl)pyridine-4-carbonitrile]	864	10000
C[C@@H]1CC[C@@H](Sc2cc(C#N)ccn2)CN1C(=O)c1ccsc1-n1nccn1 [Example 44, 2-{[(3R,6R)-6-Methyl-1-{[2-(2H-1,2,3-triazol-2-yl)thiophen-3-yl]carbonyl}piperidin-3-yl]sulfanyl}pyridine-4-carbonitrile]	18.8	3920
C[C@@H]1CC[C@@H](Sc2ncccc2C(=O)O)CN1C(=O)c1ccccc1-n1nccn1 [Example 48, 2-{[(3R,6R)-6-Methyl-1-{[2-(2H-1,2,3-triazol-2-yl)phenyl]carbonyl}piperidin-3-yl]sulfanyl}pyridine-3-carboxylic acid]	626	6540
COC(=O)c1c(OC)ccnc1S[C@@H]1CC[C@@H](C)N(C(=O)c2ccccc2-n2nccn2)C1 [Example 49, Methyl 4-methoxy-2-{[(3R,6R)-6-methyl-1-{[2-(2H-1,2,3-triazol-2-yl)phenyl]carbonyl}piperidin-3-yl]sulfanyl}pyridine-3-carboxylate]	11.1	73.2

Reference: US9617246B2, “Thioether-piperidinyl orexin receptor antagonists” (MERCK SHARP & DOHME CORP., priority 2013, dated 2017)
